Results from patent US5760213A, “Immunoactivating agent” (Tayca Corporation, priority 1995, dated 1998).

Columns and labels:
IL-6 = assay: Measurement of Interleukin (IL-6) inducibility; assay type: in vivo; conditions: serum 90 minutes after injection, 100 μg/0.2 ml intravenously, MDP-primed C3H/He mice; average value ± standard deviation
Description: (§1) First, 1 wt % aqueous solutions of the respective polysaccharides obtained in the above Preparation Examples were prepared. A cationic ion exchange resin was added to each solution to convert the counter ions of carboxyl group of glucuronic acid residue in the polysaccharide into hydrogen ions, and then the solution was neutralized with sodium hydroxide to replace the counter ions with sodium ions, then passed through a 0.2 μm-opening membrane filter and freeze-dried. The resulting polysaccharide preparations were subjected to the following tests.
(§2) These mice were left under observation for anaphylaxis-like reaction and sudden death. After 90 minutes from the injection, blood was collected from the surviving mice to determine TNF and IL-6 activities in the serum. TNF activity was calculated on the basis of the ratio of activity of the actinomycin D-treated L-929 cells to that of rHuTNF (human recombination TNF) used as control, with the killing action of the said L-929 cells being taken as index, and indicated by ng/ml. In the case of IL-6 activity, the IL-6 dependent MH60.BSF2 cell growth stimulating action was taken as index, and the IL-6 activity was calculated on the basis of the calibration curves obtained from the test of IL-6 and control rHuIL-6, and indicated by U/ml.

[1] = test system: myeloma cell strain NS-1/Z; assay: Determination of Cytotoxic T Cell (CTL) Inducibility; assay type: in vivo, BALB/c mouse (target cells); C3H mice (effector cells); conditions: 20 mg/kg/day, subcutaneous, four times, relative to physiological saline control
Description: as §1
The following test was conducted on the C3H mice and BALB/c mice which are different in H-2 haplotype.
The spleen lymphocytes (2×10^7) of the BALB/c mice were immunized in the abdominal cavities of the C3H mice (4 mice per group: N=4). Each of the test specimens shown in Table 5 was given subcutaneously to the back of each of the said C3H mice at a dose of 50 mg/kg or 20 mg/kg, once a day, four times in all, from the day before immunization till 2 days after immunization. As control, physiological saline was used instead of the test specimens. After 9 days, the spleen lymphocyte suspension was collected from the C3H mice. This lymphocyte suspension contained the cytotoxic T cells (hereinafter referred to as effector cells and abbreviated as E). Then, 10^4 cells of myeloma cell strain NS-1/Z (hereinafter abbreviated as T) derived from the BALB/c mouse into which β-galactosidase (β-gal) of Escherichia coli had been introduced, were mixed as target cells with the effector cells so that the E/T ratio would become 30, 60 or 120, and the mixture was kept in 0.2 ml of a medium RPMI-1640 at 37° C. for 4 hours. The activity of β-gal released into the supernatant by destruction of the target cells was measured, and the cytotoxicity by CTL was calculated from the following equation. [formula] A: released β-gal activity B: naturally released β-gal activity (enzyme release observed when no effector cells are present)
C: overall β-gal activity (T used is dissolved in 0.0425% Triton-X100 and the overall enzyme activity is measured.) [formula]

C3H/He mice = assay: Observation for anaphylaxis-like reaction and sudden death in MDP-primed mice; assay type: in vivo; conditions: 100 μg/0.2 ml intravenously, 4 hours after MDP
Description: as §1, §2

TNF = assay: Measurement of Tumor Necrosis Factor (TNF) inducibility; assay type: in vivo; conditions: serum 90 minutes after injection, 100 μg/0.2 ml intravenously, MDP-primed C3H/He mice; average value ± standard deviation
Description: as §1, §2

Sarcoma 180 cancer cells = assay: Determination of Cancer Growth Inhibitory Effect (Sarcoma 180 solid cancer in ICR mice); assay type: in vivo; conditions: Sarcoma 180 subcutaneous graft, 30 mg/kg per day intraperitoneally for 10 days, tumor weight after 5 weeks
Description: as §1

rats = conditions: oral administration to rats, cited from earlier work

## Schizophyllan
IL-6
  IL-6: 14.1 ± 2.2 U/ml
[1]; E/T = 30
  Immunoactivating activity, E/T = 30: 5.5
[1]; E/T = 60
  Immunoactivating activity, E/T = 60: 2.0
[1]; E/T = 120
  Immunoactivating activity, E/T = 120: 1.7
C3H/He mice
  Anaphylaxis-like reaction: 0/3
  Sudden death: 0/3
TNF
  TNF: 0 ± 0 ng/mL

## Lentinan
Sarcoma 180 cancer cells
  Cancer cell growth inhibition percentage: 100%

## O=P1(N(CCCl)CCCl)NCCCO1 (stereo not shown) [Cyclophosphide]
rats; female
  LD50 (female): 118 mg/kg
rats; male
  LD50 (male): 100 mg/kg
